Source: publication PMC7852567, “A first-in-human phase 1 and pharmacological study of TAS-119, a novel selective Aurora A kinase inhibitor in patients with advanced solid tumours” (British Journal of Cancer, 2020)

What was measured:
RET = system: RET; parameters: method as in doi:10.1016/S0959-8049(14)70524-6; details: pre-clinical data; cited from earlier work
[1] = in vivo; cited from earlier work
[2] = system: phosphorylated histone H3 (pHH3); assay: pHH3 immunohistochemistry in paired skin biopsies and paired tumour samples; type: in vivo, human
Method: (§1) Blood and tissue samples were taken for PD on-target effects during mitosis of TAS-119. First, the rate of phosphorylated histone H3 (pHH3) immunohistochemistry-positive cells to total cells were measured in paired skin biopsies and paired tumour samples collected prior to first TAS-119 administration as well as after receiving TAS-119 on day 4 of cycle 1. In case of target engagement, an increase in pHH3 is expected because of cells that will stagnate in mitosis. Second, pre- and post-dose mRNA expression of genes involved in mitosis, BORA, SGOL2, KIF20A and DEPDC-1, was analysed in tissue samples by reverse transcriptase-polymerase chain reaction.

TRK-B = system: TRK-B; parameters: method as in doi:10.1016/S0959-8049(14)70524-6; details: pre-clinical data; cited from earlier work
ROS = system: ROS; parameters: method as in doi:10.1016/S0959-8049(14)70524-6; details: pre-clinical data; cited from earlier work
[3] = system: BORA, SGOL2, KIF20A and DEPDC-1; assay: mRNA expression of mitosis genes by RT-PCR in tissue samples; type: in vivo, human; details: 32 patients from the dose escalation part
Method: as §1

[4] = system: cancer cells with MYC oncogene amplifications and/or mutations in the Wnt/β-catenin pathway; parameters: method as in PMID 22222631, doi:10.15761/IMM.1000162; details: cited from earlier work
[5] = system: patients with advanced, refractory, solid tumours; assay: First-in-human phase 1 study: safety, tolerability, DLT, MTD, RP2D; type: in vivo; details: for DLT events in words: cycle 1
Method: This multicentre study (six centres) consisted of a dose escalation part with a 3 + 3 design to explore safety and tolerability. Patients were enrolled into predefined dose levels (DLs; 70, 150, 200, 250, 300 mg BID) utilising a 4 days on/3 days off schedule 3 out of 4 weeks (intermittent schedule). The rationale for this intermittent schedule was based on pre-clinical data showing a more favourable toxicity profile, compared to continuous dosing regimens while maintaining antitumour activity. In addition to the 4 days on/3 days off, 3 out of 4 weeks schedule, a continuous dosing (200 mg BID) schedule with the same weekly schedule (4 days on/3 days off) administered 4 out of 4 weeks, was explored in the escalation phase. A minimum of 3 patients were to be treated at each DL, and at least 6 patients were planned to be enrolled at the MTD level. The MTD was defined as the highest DL at which <33% of patients experienced a dose-limiting toxicity (DLT) during cycle 1. The RP2D was defined as a dose below or equal to the MTD based on the evaluation of all available information (tolerability in cycles after cycle 1, PK, PD or other safety information). The RP2D was used in the expansion part of this study. Based on the safety profile assessed in the dose escalation part of this study, either the intermittent (3 out of 4 weeks) or the continuous dosing schedule (4 out of 4 weeks) could be selected.
TAS-119 was administered orally BID as tablets of 25 and 100 mg strength, on an empty stomach. Based on rodent toxicology data, 70 mg BID was determined as the starting dose after conversion from the severely toxic dose in 10% of exposed animals (STD10) (63 mg/kg BID) to one tenth of the human equivalent dose. […] Non-haematological DLTs consisted of grade ≥3 toxicity (excluding nausea/vomiting lasting <48 h and controlled by anti-emetic therapy, diarrhoea lasting <48 h and responsive to anti-diarrhoea medication or hypersensitivity reactions), whereas haematological DLT consisted of any grade 4 neutropenia lasting >7 days, any febrile neutropenia (documented absolute neutrophil count <1000/mm^3) lasting >1 h, any grade 4 thrombocytopenia or grade 3 thrombocytopenia associated with bleeding and requiring blood transfusion.
Vital sign assessment, blood cell count, serum biochemistry, coagulation parameters, urinalysis, a 12-lead electrocardiogram and, if applicable, a pregnancy test were performed at baseline. In addition, after the amendment of the protocol (Amendment 2: 31-March-2015) an ophthalmologic assessment, including visual acuity, pupil shape and pupillary reflexes, extraocular motility (eye movement) and alignment, tonometry, visual field, external examination, slit-lamp examination, and fundoscopy, was performed and repeated in all patients on days 8 and 22 during cycle 1 and on day 1 of every subsequent cycle, beginning with cycle 3. This was a consequence of ocular toxicity observed in 2 out of 26 patients until that moment.
Adverse events (AEs) at baseline and during the study were recorded and graded based on the Common Terminology Criteria for Adverse Events v4.03. Tumour measurements were done at the end of every second cycle or as per the Institutional standard of care in case of clinical indications. Response were assessed using Response Evaluation Criteria in Solid Tumours (RECIST) v1.1.[19]

Cc1cc(Nc2nc(CC3(C(=O)O)CCN(C(=O)c4cccc(Cl)c4Cl)CC3)ccc2F)n[nH]1 [TAS-119]
IC50 (RET): 25.8 ± 1.5 nM
severely toxic dose in 10% of exposed animals (STD10) [1]: 63 mg/kg BID
mean pHH3-positive rate in skin samples after administration ([2]; 55 paired samples, pre-dose versus day 4 of cycle 1, p value <0.0001): increased
mean pHH3 rate in paired tumour samples ([2]; eight paired tumour samples): did not significantly change
IC50 (TRK-B): 1.53 ± 0.12 nM
IC50 (ROS): 29.3 ± 0.8 nM
mRNA expression level of mitosis genes after dosing [3]: no significant increase
growth inhibitory effects on cancer cells with MYC amplifications and/or Wnt/β-catenin pathway mutations [4]: more potent growth inhibitory effects
maximum tolerated dose (MTD) ([5]; 4 days on/3 days off, 3 out of 4 weeks): 250 mg BID
DLT events in words ([5]; DL 2.2, 250 mg BID): one patient with grade 2 AEs of fatigue, corneal epithelial microcysts and nausea
DLT events in words ([5]; DL 3, 300 mg BID, 2 patients): SAE of corneal microcysts, grade 2 and 3
AE with the outcome of death ([5]; escalation part, one patient at DL 2 (150 mg BID), disease progression, deemed not study treatment related): 3%
AEs with the outcome of death ([5]; expansion part): No AEs with the outcome of death
AE: Alkaline phosphatase increase ([5]; human, in vivo): 7 (17.5) n, %
AE: Amylase increase ([5]; human, in vivo): 4 (10.0) n, %
AE: Gamma-glutamyltransferase increase ([5]; human, in vivo): 7 (17.5) n, %
AE: Headache ([5]; human, in vivo): 5 (12.5) n, %
AE: Hyperglycaemia ([5]; human, in vivo): 5 (12.5) n, %
AE: Hypoalbuminaemia ([5]; human, in vivo): 5 (12.5) n, %
AE: Hypokalaemia ([5]; human, in vivo): 4 (10.0) n, %
AE: Hypotension ([5]; human, in vivo): 5 (14.7) n, %
AE: Pruritis ([5]; human, in vivo): 4 (10.0) n, %
AE: Upper respiratory tract infection ([5]; human, in vivo): 5 (12.5) n, %
AE: Urinary tract infection ([5]; human, in vivo): 6 (15.0) n, %
AE: Weight loss ([5]; human, in vivo): 4 (11.8) n, %
AEs leading to discontinuation of study drug ([5]; human, in vivo): 12%
AEs leading to discontinuation of the study drug ([5]; human, in vivo): 8%
dose dependence of ocular toxicity ([5]; human, in vivo): dose dependent and only seen at doses of 200 mg BID and above
grade ≥3 diarrhoea ([5]; human, in vivo): 5/74
grade ≥3 increased lipase without symptoms of pancreatitis ([5]; human, in vivo): 9/74
ocular side effects, in total ([5]; human, in vivo): 9 patients
ocular toxicity throughout the various DLs ([5]; human, in vivo): 38 % of the patients
recommended phase 2 dose (RP2D) ([5]; human, in vivo): 200 mg BID
treatment-related AEs leading to discontinuation of study drug ([5]; human, in vivo): 9%
patients with DLT during cycle 1 ([5]; in vivo): Five
patients with an ocular DLT ([5]; in vivo): four
treatment-related AEs leading to discontinuation of the study drug ([5]; in vivo): none
